Test results taken from ChEMBL document CHEMBL3045487, “Bioactivity guided isolation of antiinflammatory, analgesic, and antipyretic constituents from the leaves of Pedilanthus tithymaloides (L.)” (Med Chem Res, 2013).

How the values were obtained:
Mus musculus [1] = species: Mus musculus; test: animal or person; settings: Swiss albino, po, read-out: INH
Description: Antinociceptive activity Swiss albino Mus musculus (mouse) assessed as inhibition of formalin-induced paw licking at 5 mg/kg, po administered 30 min prior to formalin-challenge measured from 15 to 30 min relative to control

Mus musculus [2] = species: Mus musculus; test: animal or person; settings: Swiss albino, po, read-out: INH; remark: listed apart in the source
Description: Antinociceptive activity Swiss albino Mus musculus (mouse) assessed as inhibition of formalin-induced paw licking at 5 mg/kg, po administered 30 min prior to formalin-challenge measured up to 5 min relative to control

Mus musculus [3] = test: Toxicity in Swiss albino Mus musculus (mouse) assessed as weight loss up to 100 mg/kg, po measured up to 24 hr relative to control; format: organism-based; design: dose 100 mg/kg, route oral; settings: in vivo
Mus musculus [4] = test: Antinociceptive activity Swiss albino Mus musculus (mouse) assessed as inhibition of formalin-induced paw licking at 10 mg/kg, po administered 60 min prior to formalin-challenge measured up to 5 min relative to control; format: functional
Mus musculus [5] = test: Toxicity in Swiss albino Mus musculus (mouse) assessed as effect on mobility up to 100 mg/kg, po measured up to 24 hr relative to control; format: organism-based; design: dose 100 mg/kg, route oral; settings: in vivo
Mus musculus [6] = test: Antinociceptive activity in Swiss albino Mus musculus (mouse) assessed as inhibition of acetic acid-induced writhing at 10 mg/kg, po administered 1 hr prior to acetic acid-challenge measured up to 20 min relative to control; format: functional
Mus musculus [7] = test: Toxicity in Swiss albino Mus musculus (mouse) assessed as ataxia up to 100 mg/kg, po measured up to 24 hr relative to control; format: organism-based; design: dose 100 mg/kg, route oral; settings: in vivo
Mus musculus [8] = test: Anti-inflammatory activity in Swiss albino Mus musculus (mouse) assessed as inhibition of cotton pellet-induced granuloma formation at 10 mg/kg, po administered QD for 5 days measured at 1 hr post-last dose relative to control; format: functional
Mus musculus [9] = test: Toxicity in Swiss albino Mus musculus (mouse) assessed as abdominal constriction up to 100 mg/kg, po measured up to 24 hr relative to control; format: organism-based, Abdomen; design: dose 100 mg/kg, route oral; settings: in vivo
Mus musculus [10] = test: Toxicity in Swiss albino Mus musculus (mouse) assessed as diarrhea up to 100 mg/kg, po measured up to 24 hr relative to control; format: organism-based; design: dose 100 mg/kg, route oral; settings: in vivo
Mus musculus [11] = test: Toxicity in Swiss albino Mus musculus (mouse) assessed as mortality up to 100 mg/kg, po measured up to 72 hr; format: organism-based; design: dose 100 mg/kg, route oral; settings: in vivo
Mus musculus [12] = test: Toxicity in Swiss albino Mus musculus (mouse) assessed as convulsions up to 100 mg/kg, po measured up to 24 hr relative to control; format: organism-based; design: dose 100 mg/kg, route oral; settings: in vivo
Mus musculus [13] = test: Toxicity in Swiss albino Mus musculus (mouse) assessed as lethargy up to 100 mg/kg, po measured up to 24 hr relative to control; format: organism-based; design: dose 100 mg/kg, route oral; settings: in vivo
Mus musculus [14] = test: Antinociceptive activity Swiss albino Mus musculus (mouse) assessed as inhibition of formalin-induced paw licking at 10 mg/kg, po administered 60 min prior to formalin-challenge measured from 15 to 30 min relative to control; format: functional
Mus musculus [15] = test: Toxicity in Swiss albino Mus musculus (mouse) assessed as tremors up to 100 mg/kg, po measured up to 24 hr relative to control; format: organism-based; design: dose 100 mg/kg, route oral; settings: in vivo
Mus musculus [16] = test: Toxicity in Swiss albino Mus musculus (mouse) assessed as presence of secretions up to 100 mg/kg, po measured up to 24 hr relative to control; format: organism-based; design: dose 100 mg/kg, route oral; settings: in vivo
Rattus norvegicus [17] = test: Antipyretic activity in Wistar albino Rattus norvegicus (rat) assessed as brewer's yeast-induced rectal tempeRattus norvegicus (rat)ure at 150 mg/kg, po measured at 22 hr (reference value: 39.1+/- 0.18 degC); format: functional
Rattus norvegicus [18] = test: Antipyretic activity in Wistar albino Rattus norvegicus (rat) assessed as brewer's yeast-induced rectal tempeRattus norvegicus (rat)ure at 150 mg/kg, po measured at 21 hr (reference value: 39.1+/- 0.18 degC); format: functional
Rattus norvegicus [19] = test: Antipyretic activity in Wistar albino Rattus norvegicus (rat) assessed as brewer's yeast-induced rectal tempeRattus norvegicus (rat)ure at 150 mg/kg, po measured at 20 hr (reference value: 39.1+/- 0.18 degC); format: functional
Rattus norvegicus [20] = test: Antipyretic activity in Wistar albino Rattus norvegicus (rat) assessed as brewer's yeast-induced rectal tempeRattus norvegicus (rat)ure at 150 mg/kg, po measured at 23 hr (reference value: 39.1+/- 0.18 degC); format: functional
Rattus norvegicus [21] = test: Antipyretic activity in Wistar albino Rattus norvegicus (rat) assessed as brewer's yeast-induced rectal tempeRattus norvegicus (rat)ure at 150 mg/kg, po measured at 19 hr (reference value: 39.3 +/- 0.11 degC); format: functional
Mus musculus [22] = test: Anti-inflammatory activity in Swiss albino Mus musculus (mouse) assessed as inhibition of carrageenan-induced paw edema at 10 mg/kg, ip administered 30 min prior to carrageenan-challenge measured after 3 to 4 hr relative to control; format: functional; settings: route intraperitoneal
Mus musculus [23] = test: Anti-inflammatory activity in Swiss albino Mus musculus (mouse) assessed as inhibition of carrageenan-induced paw edema at 10 mg/kg, ip administered 30 min prior to carrageenan-challenge measured after 5 hr relative to control; format: functional; settings: route intraperitoneal

`CN1CC[C@]23c4c5ccc(O)c4O[C@H]2[C@@H](O)C=C[C@H]3[C@H]1C5` [MORPHINE] was tested, and the inhibition in vivo at 5 mg/kg (Mus musculus [1]) was 100% and the inhibition in vivo at 5 mg/kg (Mus musculus [2]) was 68%.

In the case of `C[C@H]1[C@H](C)CC[C@]2(C(=O)O)CC[C@]3(C)C(=CC[C@@H]4[C@@]5(C)CC[C@H](O)C(C)(C)[C@@H]5CC[C@]43C)[C@H]12` [URSOLIC ACID], the Activity (Mus musculus [3]) is reported as “Non-toxic”, the inhibition in vivo at 10 mg/kg (Mus musculus [4]) is reported as 43.6% and the Activity (Mus musculus [5]) is reported as “Non-toxic”. For the same compound, the inhibition in vivo at 10 mg/kg (Mus musculus [6]) was 50.3%, the Activity (Mus musculus [7]) was “Non-toxic” and the inhibition in vivo at 10 mg/kg (Mus musculus [8]) was 38.5%. For the same compound, the Activity (Mus musculus [9]) was “Non-toxic”, the Activity (Mus musculus [10]) was “Non-toxic” and the Activity (Mus musculus [11]) was “Non-toxic”. For the same compound, the Activity (Mus musculus [12]) was “Non-toxic”, the Activity (Mus musculus [13]) was “Non-toxic” and the inhibition in vivo at 10 mg/kg (Mus musculus [14]) was 61.4%. For the same compound, the Activity (Mus musculus [15]) was “Non-toxic” and the Activity (Mus musculus [16]) was “Non-toxic”.

`CC(=O)Nc1ccc(O)cc1` [ACETAMINOPHEN] was tested, and the T (Rattus norvegicus [17]) was 37.9 °C, the T (Rattus norvegicus [18]) was 38 °C and the T (Rattus norvegicus [19]) was 38 °C. For the same compound, the T (Rattus norvegicus [20]) was 37.7 °C and the T (Rattus norvegicus [21]) was 39.6 °C.

In the case of `CC(=O)O[C@H]1CC[C@@H]2[C@](C)(CC[C@H]3[C@@]2(C)CC[C@@]2(C)[C@H]4CC(C)(C)CC[C@]4(C)CC[C@]32C)[C@H]1C` [EPIFRIEDELANYL ACETATE], the Activity (Mus musculus [3]) is reported as “Non-toxic”, the Activity (Mus musculus [5]) is reported as “Non-toxic” and the Activity (Mus musculus [7]) is reported as “Non-toxic”. For the same compound, the inhibition in vivo at 10 mg/kg (Mus musculus [8]) was 24.9%, the inhibition in vivo at 10 mg/kg (Mus musculus [22]) was 30.6% and the Activity (Mus musculus [9]) was “Non-toxic”. The Activity (Mus musculus [10]) was “Non-toxic”, the Activity (Mus musculus [11]) was “Non-toxic” and the Activity (Mus musculus [12]) was “Non-toxic”. The Activity (Mus musculus [13]) was “Non-toxic”, the Activity (Mus musculus [15]) was “Non-toxic” and the Activity (Mus musculus [16]) was “Non-toxic”.

`COc1ccc2c(c1)c(CC(=O)O)c(C)n2C(=O)c1ccc(Cl)cc1` [INDOMETHACIN] showed an inhibition in vivo at 10 mg/kg (Mus musculus [8]) of 45.5% and an inhibition in vivo at 10 mg/kg (Mus musculus [23]) of 61.1%.
